# Assay results reported in patent US20260216182A1, “PYRIDAZINE NLRP3 INHIBITOR COMPOUND, PHARMACEUTICAL COMPOSITION, AND PREPARATION METHOD THEREFOR AND USE THEREOF” (CHANGCHUN GENESCIENCE PHARMACEUTICAL CO., LTD., priority 2022, published 2026).
# Where two headings read alike, the source gives them in different places.
# Tested on: IL-1β
# Assay: Mouse acute peritonitis model (LPS/ATP), IL-1β in peritoneal lavage fluid and blood
# Assay type: in vivo, C57BL/6 mice
# Conditions: 10 mg/kg oral; for inhibition at 10 mg/kg: Mus musculus, vs vehicle group
# Method: Test Example 2: Mouse Acute Peritonitis Model Evaluation Experiment
# Male C57BL/6 mice were orally administered with a 10 mg/kg dose of the test compound or control vehicle, and then injected intraperitoneally with 1 μg of E. coli 055: B5 ultrapure lipopolysaccharide (LPS) suspension 1 h later, followed by an intraperitoneal injection of 0.5 ml of 30 mM disodium salt ATP suspension (in PBS, the pH of the ATP solution was adjusted to 7.2 before injection) 2 h later. After 30 min, all animals would be euthanized by carbon dioxide, and blood and peritoneal lavage fluid would be collected. The peritoneal lavage fluid was kept at 4° C.
# Preparation of peritoneal lavage fluid: The peritoneal cavity would be lavaged with ice-cold PBS (3 mL) containing 25 U/mL heparin and 10% heat-inactivated FBS. Prior to use, one tablet of the protease inhibitor mixture was added per 50 mL of buffer. The collected lavage fluid would be centrifuged (centrifugation conditions: 1000g, 4° C., 10 min) to remove cells and cell debris, and the clarified samples would be stored at −80° C. for measurement of cytokine IL-1β.
# The mouse IL-1β/IL-1F2 DuoSet ELISA kit (R&D Systems) was used to measure the changes in IL-1β cytokine levels in peritoneal lavage fluid and serum. By comparing with the Vehical group, the inhibition rate of the compound on IL-1β was calculated.
structure (smiles),measurement,setting,value
"CC#Cc1ccc2c(-c3ccc(Cl)cc3O)nnc(NC[C@H](O)CO)c2c1 [Compound 062, (S)-3-((4-(4-chloro-2-hydroxyphenyl)-7-(prop-1-yn-1-yl)phthalazin-1-yl)amino) propan-1,2-diol]",inhibitory effect on IL-1β in the in vivo animal model (in words),,"Conclusion: Some compounds showed inhibitory effects on IL-1β in the in vivo animal model evaluation experiment, among which compound 062 had the most significant inhibitory effect."
same,inhibition at 10 mg/kg,read-out: IL-1β Peritoneal lavage fluid (inhibition rate),94%
same,inhibition at 10 mg/kg,read-out: IL-1β Plasma (inhibition rate),96%
